According to ChEMBL document CHEMBL5678818, “Discovery of potent SOS1 inhibitors that block RAS activation via disruption of the RAS-SOS1 interaction” (Proc Natl Acad Sci U S A, 2019):

Experiments:
[1] = tested on: Epidermal growth factor receptor (Homo sapiens), P00533 [T790M]; assay: Inhibition of EGFR T790M mutant (unknown origin) assessed as residual activity at 100 nM by KINOMEscan analysis relative to control
[2] = target: T1, Serine/threonine-protein kinase Sgk3 (Homo sapiens) (UniProt Q96BR1); assay: Inhibition of SGK3 (unknown origin) assessed as residual activity at 100 nM by KINOMEscan analysis relative to control
T1 sequence (whole entry): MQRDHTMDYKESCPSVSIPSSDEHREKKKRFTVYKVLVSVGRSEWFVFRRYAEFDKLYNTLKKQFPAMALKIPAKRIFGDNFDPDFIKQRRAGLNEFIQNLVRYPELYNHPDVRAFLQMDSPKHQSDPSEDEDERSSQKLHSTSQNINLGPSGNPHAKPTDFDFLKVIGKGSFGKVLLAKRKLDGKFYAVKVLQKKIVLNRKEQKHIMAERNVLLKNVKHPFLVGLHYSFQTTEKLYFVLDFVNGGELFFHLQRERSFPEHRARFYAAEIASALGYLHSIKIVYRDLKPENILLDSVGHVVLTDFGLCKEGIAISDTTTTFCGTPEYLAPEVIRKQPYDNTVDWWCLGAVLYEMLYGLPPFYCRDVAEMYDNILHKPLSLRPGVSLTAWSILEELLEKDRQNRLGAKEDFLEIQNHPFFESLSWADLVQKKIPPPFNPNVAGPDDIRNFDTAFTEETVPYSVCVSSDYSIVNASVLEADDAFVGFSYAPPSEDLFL

[3] = target: T2, Phosphatidylinositol 4,5-bisphosphate 3-kinase catalytic subunit delta isoform (Homo sapiens) (UniProt O00329); assay: Inhibition of PIK3CD (unknown origin) assessed as residual activity at 100 nM by KINOMEscan analysis relative to control
T2 sequence (whole entry): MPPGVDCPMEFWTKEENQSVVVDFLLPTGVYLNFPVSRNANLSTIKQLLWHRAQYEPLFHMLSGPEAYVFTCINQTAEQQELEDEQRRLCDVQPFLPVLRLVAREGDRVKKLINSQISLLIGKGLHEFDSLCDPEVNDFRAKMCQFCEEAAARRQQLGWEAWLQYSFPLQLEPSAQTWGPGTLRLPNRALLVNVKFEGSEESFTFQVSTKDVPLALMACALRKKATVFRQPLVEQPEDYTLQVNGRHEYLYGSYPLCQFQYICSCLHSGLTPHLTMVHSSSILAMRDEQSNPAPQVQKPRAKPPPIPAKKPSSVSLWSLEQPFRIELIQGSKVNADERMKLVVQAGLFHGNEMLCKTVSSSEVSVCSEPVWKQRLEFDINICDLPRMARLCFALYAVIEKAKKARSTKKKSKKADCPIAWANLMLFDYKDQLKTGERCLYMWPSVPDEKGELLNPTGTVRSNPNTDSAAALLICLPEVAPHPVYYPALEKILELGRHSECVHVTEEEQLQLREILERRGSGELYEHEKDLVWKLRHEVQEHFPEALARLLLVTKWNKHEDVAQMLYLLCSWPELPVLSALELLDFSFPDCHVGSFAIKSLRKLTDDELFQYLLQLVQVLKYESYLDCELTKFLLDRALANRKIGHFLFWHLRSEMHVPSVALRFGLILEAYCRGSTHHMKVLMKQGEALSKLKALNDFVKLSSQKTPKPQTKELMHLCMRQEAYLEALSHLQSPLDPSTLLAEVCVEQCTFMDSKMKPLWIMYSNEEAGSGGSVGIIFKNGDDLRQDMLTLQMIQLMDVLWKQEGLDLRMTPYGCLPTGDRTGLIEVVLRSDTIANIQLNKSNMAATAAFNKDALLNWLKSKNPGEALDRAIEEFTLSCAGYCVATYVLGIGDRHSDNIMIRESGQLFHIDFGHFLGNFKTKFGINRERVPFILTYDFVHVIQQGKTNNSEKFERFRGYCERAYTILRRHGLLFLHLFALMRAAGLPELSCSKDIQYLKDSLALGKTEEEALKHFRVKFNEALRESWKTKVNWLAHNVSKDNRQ

[4] = target: T3, MAP/microtubule affinity-regulating kinase 4 (Homo sapiens) (UniProt Q96L34); assay: Inhibition of MARK4 (unknown origin) assessed as residual activity at 100 nM by KINOMEscan analysis relative to control
T3 sequence (whole entry): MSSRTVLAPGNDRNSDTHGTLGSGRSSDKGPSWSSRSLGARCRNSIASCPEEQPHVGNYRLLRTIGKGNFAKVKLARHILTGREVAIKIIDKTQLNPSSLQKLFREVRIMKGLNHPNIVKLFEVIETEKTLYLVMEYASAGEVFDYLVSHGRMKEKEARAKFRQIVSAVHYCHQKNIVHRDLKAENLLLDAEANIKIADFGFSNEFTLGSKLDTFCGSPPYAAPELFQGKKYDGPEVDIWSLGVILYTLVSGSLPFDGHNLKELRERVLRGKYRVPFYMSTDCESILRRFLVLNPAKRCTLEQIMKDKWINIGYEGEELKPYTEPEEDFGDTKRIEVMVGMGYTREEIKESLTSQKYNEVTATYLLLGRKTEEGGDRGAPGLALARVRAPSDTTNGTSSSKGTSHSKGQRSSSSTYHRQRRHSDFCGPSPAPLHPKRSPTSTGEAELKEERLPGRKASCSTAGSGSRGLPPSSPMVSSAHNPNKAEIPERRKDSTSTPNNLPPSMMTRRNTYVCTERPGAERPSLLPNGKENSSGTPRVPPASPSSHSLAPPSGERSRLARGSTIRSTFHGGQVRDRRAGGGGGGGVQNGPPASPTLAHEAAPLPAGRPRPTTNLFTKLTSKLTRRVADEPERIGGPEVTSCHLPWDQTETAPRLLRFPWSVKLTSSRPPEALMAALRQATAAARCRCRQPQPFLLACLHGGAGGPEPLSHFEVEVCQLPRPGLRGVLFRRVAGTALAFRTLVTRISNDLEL

[5] = target: Tyrosine-protein kinase Lck (Homo sapiens) (UniProt P06239); assay: Inhibition of LCK (unknown origin) assessed as residual activity at 100 nM by KINOMEscan analysis relative to control
Chain of Tyrosine-protein kinase Lck (Homo sapiens) (P06239 2-509 limits assumed): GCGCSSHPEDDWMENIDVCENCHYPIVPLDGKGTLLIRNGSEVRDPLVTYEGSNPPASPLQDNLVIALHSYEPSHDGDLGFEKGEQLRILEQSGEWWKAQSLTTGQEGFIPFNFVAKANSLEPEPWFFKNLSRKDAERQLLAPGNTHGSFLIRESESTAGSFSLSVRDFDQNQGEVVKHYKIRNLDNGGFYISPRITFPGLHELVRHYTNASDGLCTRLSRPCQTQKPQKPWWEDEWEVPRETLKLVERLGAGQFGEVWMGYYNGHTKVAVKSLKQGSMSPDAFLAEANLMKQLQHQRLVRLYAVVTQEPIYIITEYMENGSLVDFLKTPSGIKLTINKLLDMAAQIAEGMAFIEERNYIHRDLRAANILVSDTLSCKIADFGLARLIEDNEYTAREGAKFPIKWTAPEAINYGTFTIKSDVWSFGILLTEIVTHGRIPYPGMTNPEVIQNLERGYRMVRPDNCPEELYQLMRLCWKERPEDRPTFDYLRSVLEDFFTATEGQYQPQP

COc1cc2ncnc(N[C@H](C)c3cccc4ccccc34)c2cc1OC
Activity [1]: 96% | Activity [2]: 100% | Activity [3]: 87% | Activity [4]: 97% | Activity [5]: 100%
